Columns and labels:
Experiment in all cases: relative viability (nuclei count vs DMSO), 5 days (fraction); higher = more cells survive
EMC-BAC-2 = system: EMC-BAC-2
Outline: (§1)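 Relative viability is defined as nuclei in treated wells over nuclei in vehicle wells. Duplicate plates were run and medians reported. Lung cancer cell lines in 1536-well plates were dosed by pin tool one day after seeding, with one drug or with a fixed anchor-drug dose plus five library-drug doses (not always all listed) in √10 steps, and nuclei were counted after 5 days.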

HCC-366 = system: HCC-366
Outline: as §1

HCC-78 = system: HCC-78
Outline: as §1

LCLC-97TM1 = system: LCLC-97TM1
Outline: as §1

NCI-H1395 = system: NCI-H1395
Outline: as §1

NCI-H1648 = system: NCI-H1648
Outline: as §1

NCI-H1703 = system: NCI-H1703
Outline: as §1

A549 = system: A549
Outline: as §1

IA-LM = system: IA-LM
Outline: as §1

| Structure (SMILES) | relative viability (EMC-BAC-2; first compound 0.002 µM) | relative viability (EMC-BAC-2; first compound 0.02 µM) | relative viability (EMC-BAC-2; first compound 0.06325 µM) | relative viability (EMC-BAC-2; first compound 0.2 µM) | relative viability (HCC-366; first compound 0.002 µM) | relative viability (HCC-366; first compound 0.006325 µM) | relative viability (HCC-366; first compound 0.02 µM) | relative viability (HCC-366; first compound 0.06325 µM) | relative viability (HCC-366; first compound 0.2 µM) | relative viability (HCC-78; first compound 0.002 µM) | relative viability (HCC-78; first compound 0.006325 µM) | relative viability (HCC-78; first compound 0.02 µM) | relative viability (HCC-78; first compound 0.06325 µM) | relative viability (HCC-78; first compound 0.2 µM) | relative viability (LCLC-97TM1; first compound 0.002 µM) | relative viability (LCLC-97TM1; first compound 0.006325 µM) | relative viability (LCLC-97TM1; first compound 0.06325 µM) | relative viability (LCLC-97TM1; first compound 0.2 µM) | relative viability (NCI-H1395; first compound 0.002 µM) | relative viability (NCI-H1395; first compound 0.006325 µM) | also measured |
| --- | --- | --- | --- | --- | --- | --- | --- | --- | --- | --- | --- | --- | --- | --- | --- | --- | --- | --- | --- | --- | --- |
| CCNC(=O)c1noc(-c2cc(C(C)C)c(O)cc2O)c1-c1ccc(CN2CCOCC2)cc1 [Luminespib] + NC(=O)Nc1cc(-c2cccc(F)c2)sc1C(=O)N[C@H]1CCCNC1 [AZD7762] (partner 0.2 µM) | 1.12 | 0.689 | 0.769 | 0.226 | 0.392 | 0.302 | 0.331 | 0.0393 | 0.0222 | 0.562 | 0.591 | 0.536 | 0.497 | 0.333 | 0.251 | 0.22 | 0.167 | 0.0727 | 0.399 | 0.372 | relative viability (EMC-BAC-2; first compound 0.006325 µM): 0.655; relative viability (LCLC-97TM1; first compound 0.02 µM): 0.111; relative viability (NCI-H1395; first compound 0.02 µM): 0.374; relative viability (NCI-H1395; first compound 0.06325 µM): 0.343; relative viability (NCI-H1395; first compound 0.2 µM): 0.384; relative viability (NCI-H1648; first compound 0.002 µM): 0.529; relative viability (NCI-H1648; first compound 0.006325 µM): 0.603; relative viability (NCI-H1648; first compound 0.02 µM): 0.875; relative viability (NCI-H1648; first compound 0.06325 µM): 0.702; relative viability (NCI-H1648; first compound 0.2 µM): 0.286; relative viability (NCI-H1703; first compound 0.002 µM): 0.146; relative viability (NCI-H1703; first compound 0.006325 µM): 0.114; relative viability (NCI-H1703; first compound 0.02 µM): 0.149; relative viability (NCI-H1703; first compound 0.06325 µM): 0.115; relative viability (NCI-H1703; first compound 0.2 µM): 0.114 |
| CCNC(=O)c1noc(-c2cc(C(C)C)c(O)cc2O)c1-c1ccc(CN2CCOCC2)cc1 [Luminespib] + Nc1ncn([C@H]2C[C@H](O)[C@@H](CO)O2)c(=O)n1 [Decitabine] (partner 2 µM) | 0.995 | 0.783 | 0.564 | 0.237 | 0.327 | 0.359 | 0.31 | 0.0527 | 0.038 | 0.644 | 0.611 | 0.666 | 0.725 | 0.448 | 0.249 | 0.258 | 0.233 | 0.154 | 0.745 | 0.694 | relative viability (A549; first compound 0.002 µM): 0.232; relative viability (A549; first compound 0.006325 µM): 0.297; relative viability (A549; first compound 0.02 µM): 0.191; relative viability (A549; first compound 0.06325 µM): 0.0306; relative viability (A549; first compound 0.2 µM): 0.0224; relative viability (NCI-H1395; first compound 0.02 µM): 0.634; relative viability (NCI-H1395; first compound 0.06325 µM): 0.382; relative viability (NCI-H1395; first compound 0.2 µM): 0.357; relative viability (NCI-H1648; first compound 0.002 µM): 0.534; relative viability (NCI-H1648; first compound 0.006325 µM): 0.569; relative viability (NCI-H1648; first compound 0.02 µM): 0.458; relative viability (NCI-H1648; first compound 0.06325 µM): 0.489; relative viability (NCI-H1648; first compound 0.2 µM): 0.301 |
| CCNC(=O)c1noc(-c2cc(C(C)C)c(O)cc2O)c1-c1ccc(CN2CCOCC2)cc1 [Luminespib] + O=C(CCCCCCC(=O)Nc1ccccc1)NO [Vorinostat] (partner 1 µM) | 0.461 | 0.263 | 0.148 | 0.178 | 0.38 | 0.35 | 0.18 | 0.0252 | 0.0243 | 0.381 | 0.426 | 0.283 | 0.519 | 0.356 | 0.555 | 0.545 | 0.0694 | 0.0638 | 0.731 | 0.751 | relative viability (IA-LM; first compound 0.002 µM): 0.918; relative viability (IA-LM; first compound 0.006325 µM): 0.934; relative viability (IA-LM; first compound 0.02 µM): 0.64; relative viability (IA-LM; first compound 0.06325 µM): 0.077; relative viability (IA-LM; first compound 0.2 µM): 0.0416; relative viability (NCI-H1395; first compound 0.02 µM): 0.508; relative viability (NCI-H1395; first compound 0.06325 µM): 0.289; relative viability (NCI-H1395; first compound 0.2 µM): 0.289; relative viability (NCI-H1648; first compound 0.002 µM): 0.299; relative viability (NCI-H1648; first compound 0.006325 µM): 0.502; relative viability (NCI-H1648; first compound 0.02 µM): 0.344; relative viability (NCI-H1648; first compound 0.06325 µM): 0.566; relative viability (NCI-H1648; first compound 0.2 µM): 0.348 |

From the supplement of paper PMC10307832
